Usually IC50 stands for the point on the concentration scale where inhibition reaches its midpoint.

For 24 compounds, IC50 results are on record in PubChem BioAssay AID860 (Vanderbilt High Throughput Screening Facility, 2007).

For the assay, the target named is Muscarinic acetylcholine receptor M4 (Rattus norvegicus) (UniProt P08485). As to the kind of experiment: antagonism at rat M4 muscarinic receptor, dose response, counter-screen for M1 allosteric modulator project, cell-based, antagonist mode (AID 860). The settings on record: rat M4-expressing cells, calcium fluorescence, antagonist mode at EC80 agonist. Background: A counterscreen serves to expose hits that act by an unwanted route or on another target.
Chain of Muscarinic acetylcholine receptor M4 (Rattus norvegicus) (P08485 whole entry, looked up): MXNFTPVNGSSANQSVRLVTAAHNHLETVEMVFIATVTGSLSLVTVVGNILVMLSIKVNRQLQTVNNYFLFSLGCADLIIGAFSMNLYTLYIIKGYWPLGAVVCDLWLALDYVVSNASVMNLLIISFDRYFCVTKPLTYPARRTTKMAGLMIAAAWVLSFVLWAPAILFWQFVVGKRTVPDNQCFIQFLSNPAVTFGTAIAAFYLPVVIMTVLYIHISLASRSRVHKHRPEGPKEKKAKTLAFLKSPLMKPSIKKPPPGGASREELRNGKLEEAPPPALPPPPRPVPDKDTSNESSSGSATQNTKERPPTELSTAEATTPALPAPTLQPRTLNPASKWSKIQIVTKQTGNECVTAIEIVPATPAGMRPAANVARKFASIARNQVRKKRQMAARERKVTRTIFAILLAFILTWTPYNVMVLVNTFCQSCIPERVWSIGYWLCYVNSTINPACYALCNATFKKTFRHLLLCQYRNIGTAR
Turning to `CN(C)CCC=C1c2ccccc2CCc2ccccc21`, the IC50 is 1150 nM.
In the case of `CCCC(CCC)C(=O)OC1C[C@H]2CC[C@@H](C1)[N+]2(C)C` (some centres undefined), the IC50 was 29.4 nM.
The value for `Cc1ccc(C(=O)C2CCN(CC(=O)NC3CCCCC3)CC2)cc1` was 72.7 nM; that for `CCC(C)N(CCNC(=O)CC1Oc2ccc(C)cc2NC1=O)C1CCCCC1` (centres undefined) was 577 nM.
For the compound `Cc1ccc2c(c1)NC(=O)C(CC(=O)Nc1ccc(CN3CCC(C)CC3)cc1)O2` (centres undefined), the IC50 is 71.6 nM.
The value for `OC(CCN1CCCC1)(c1ccccc1)C1CCCCC1` (centres undefined) was 34.3 nM; that for `O=C(CC(c1ccccc1O)N1CCCCC1)N1CCCCC1` (centres undefined) was 752 nM.
Consider `OC(CCN1CCCCC1)(c1ccccc1)c1ccccc1`, for which the IC50 is 111 nM.
Regarding `CN1CCC(=C2c3ccccc3C=Cc3ccccc32)CC1`, the IC50 is 136 nM.
The value for `O=C(CN1CCCC(O)C1)N1c2ccccc2Sc2ccc(C(F)(F)F)cc21` (centres undefined) was 979 nM; that for `COC(=O)c1ccc(CSc2nc(C)nc3c2c(=O)n(C)c(=O)n3C)o1` was 1300 nM.
In the case of `CN(C)CCCOC(=O)C1c2ccccc2Oc2ccccc21`, the IC50 is 215 nM.
For `O=C(NC1CCN(Cc2ccccc2)CC1)C1COc2ccccc2O1` (centres undefined), the IC50 was 411 nM.
With `CCN(CC)CCOC(=O)C(c1ccccc1)c1ccccc1`, the IC50 was 747 nM.
Take `O=C(OCCN1CCCC1)C1(c2ccccc2)CCCC1`: the IC50 is 325 nM.
Consider `CCN(CC)c1ccc(C2C(C(=O)OCCOC(C)C)=C(C)NC3=C2C(=O)CCC3)cc1` (centres undefined), for which the IC50 is 822 nM.
In the case of `CN(C)CCOC(=O)C(c1ccccc1)C1(O)CCCC1` (centres undefined), the IC50 is 11.7 nM.
As for `CC1CCN(Cc2ccc(NC(=O)CC3Oc4ccccc4NC3=O)cc2)CC1` (centres undefined), the IC50 was 33.1 nM.
Turning to `CNCCCC1c2ccccc2C=Cc2ccccc21`, the IC50 was 925 nM.
Regarding `CCN1C(=O)/C(=C\N2CCCCCC2)SC1=S`, the IC50 was 759 nM.
As to `COc1ccc(N2C(=O)CSC23C(=O)N2CCCc4cccc3c42)cc1` (centres undefined), the IC50 was 451 nM.
Take `CCC(C)N(CCNC(=O)CC1Oc2ccccc2NC1=O)C1CCCCC1` (centres undefined): the IC50 was 847 nM.
For `Cc1nc2c(o1)CCc1ccccc1C2N1CCN(C)CC1` (centres undefined), the IC50 was 38.3 nM.
`CCN(CCCCOC(=O)c1ccc(OC)c(OC)c1)C(C)Cc1ccc(OC)cc1` (centres undefined): the IC50 was 742 nM.
